According to the supplement of paper PMC10307832:

Key:
Experiment in all cases: relative viability (nuclei count vs DMSO), 5 days (fraction); higher = more cells survive
Ispinesib + Pictilisib = compound: Cc1ccc(C(=O)N(CCCN)[C@@H](c2nc3cc(Cl)ccc3c(=O)n2Cc2ccccc2)C(C)C)cc1 [Ispinesib] + CS(=O)(=O)N1CCN(Cc2cc3nc(-c4cccc5[nH]ncc45)nc(N4CCOCC4)c3s2)CC1 [Pictilisib] (partner 1 µM)
Outline: (§1)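 Lung cancer cell lines were pin-tool dosed in 1536-well plates on the day after seeding, with either a lone drug or a fixed anchor-drug dose plus five library-drug doses (not always all listed) in √10 steps. Nuclei were counted on 4× images after 5 days. Relative viability is the ratio of treated-well to vehicle-well nuclei counts, with each value a median of duplicate plates.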

Ispinesib + Olaparib = compound: Cc1ccc(C(=O)N(CCCN)[C@@H](c2nc3cc(Cl)ccc3c(=O)n2Cc2ccccc2)C(C)C)cc1 [Ispinesib] + O=C(c1cc(Cc2n[nH]c(=O)c3ccccc23)ccc1F)N1CCN(C(=O)C2CC2)CC1 [Olaparib] (partner 8 µM)
Outline: as §1

Ispinesib + Tozasertib = compound: Cc1ccc(C(=O)N(CCCN)[C@@H](c2nc3cc(Cl)ccc3c(=O)n2Cc2ccccc2)C(C)C)cc1 [Ispinesib] + Cc1cc(Nc2cc(N3CCN(C)CC3)nc(Sc3ccc(NC(=O)C4CC4)cc3)n2)n[nH]1 [Tozasertib] (partner 0.1 µM)
Outline: as §1

Ispinesib + Foretinib = compound: Cc1ccc(C(=O)N(CCCN)[C@@H](c2nc3cc(Cl)ccc3c(=O)n2Cc2ccccc2)C(C)C)cc1 [Ispinesib] + COc1cc2c(Oc3ccc(NC(=O)C4(C(=O)Nc5ccc(F)cc5)CC4)cc3F)ccnc2cc1OCCCN1CCOCC1 [Foretinib] (partner 0.25 µM)
Outline: as §1

Row | Cell Line | relative viability (Ispinesib + Pictilisib; first compound 0.001 µM) | relative viability (Ispinesib + Pictilisib; first compound 0.003162 µM) | relative viability (Ispinesib + Pictilisib; first compound 0.01 µM) | relative viability (Ispinesib + Pictilisib; first compound 0.03162 µM) | relative viability (Ispinesib + Pictilisib; first compound 0.1 µM) | relative viability (Ispinesib + Olaparib; first compound 0.001 µM) | relative viability (Ispinesib + Olaparib; first compound 0.003162 µM) | relative viability (Ispinesib + Olaparib; first compound 0.01 µM) | relative viability (Ispinesib + Olaparib; first compound 0.03162 µM) | relative viability (Ispinesib + Olaparib; first compound 0.1 µM) | relative viability (Ispinesib + Tozasertib; first compound 0.001 µM) | relative viability (Ispinesib + Tozasertib; first compound 0.003162 µM) | relative viability (Ispinesib + Tozasertib; first compound 0.01 µM) | relative viability (Ispinesib + Tozasertib; first compound 0.03162 µM) | relative viability (Ispinesib + Tozasertib; first compound 0.1 µM) | relative viability (Ispinesib + Foretinib; first compound 0.001 µM) | relative viability (Ispinesib + Foretinib; first compound 0.003162 µM) | relative viability (Ispinesib + Foretinib; first compound 0.01 µM) | relative viability (Ispinesib + Foretinib; first compound 0.03162 µM) | relative viability (Ispinesib + Foretinib; first compound 0.1 µM)
1 | NCI-H1944 | 0.402 | 0.398 | 0.341 | 0.288 | 0.219 | 0.436 | 0.454 | 0.491 | 0.418 | 0.406 | 0.263 | 0.249 | 0.275 | 0.225 | 0.234 | 0.797 | 0.908 | 0.9 | 0.627 | 0.677
2 | NCI-H1651 | 0.623 | 0.66 | 0.8 | 0.491 | 0.18 | 0.183 | 0.217 | 0.179 | 0.169 | 0.19 | 0.692 | 0.776 | 0.968 | 0.824 | 0.234 | 0.973 | 0.768 | 1.01 | 0.561 | 0.147
3 | EBC-1 | 0.448 | 0.38 | 0.328 | 0.179 | 0.191 | 0.772 | 0.725 | 0.792 | 0.669 | 0.171 | – | – | – | – | – | 0.111 | 0.101 | 0.109 | 0.0927 | 0.0893
4 | COR-L 105 | 0.448 | 0.393 | 0.257 | 0.243 | 0.258 | 0.578 | 0.667 | 0.579 | 0.411 | 0.51 | 0.378 | 0.358 | 0.365 | 0.343 | 0.329 | 1.46 | 1.01 | 1.03 | 0.468 | 0.345
5 | RERF-LC-KJ | 0.508 | 1.42 | 0.445 | 0.322 | 0.297 | 0.934 | 0.791 | 0.427 | 0.22 | 0.328 | 0.593 | 0.412 | 0.329 | 0.262 | 0.354 | 0.875 | 0.9 | 0.976 | 0.91 | 0.257
6 | NCI-H1793 | 0.331 | 0.404 | 0.39 | 0.217 | 0.124 | 1.04 | 0.833 | 1.19 | 0.752 | 0.371 | 0.322 | 0.345 | 0.724 | 0.288 | 0.368 | 0.711 | 0.585 | 0.958 | 0.637 | 0.194
7 | CAL-12T | 0.413 | 0.545 | 0.523 | 0.295 | 0.172 | 0.754 | 0.791 | 0.896 | 0.768 | 0.217 | 0.244 | 0.361 | 0.296 | 0.213 | 0.222 | 1.2 | 1.06 | 1.31 | 0.938 | 0.197
8 | NCI-H1993 | 0.808 | 0.828 | 0.806 | 0.7 | 0.611 | 1.08 | 1.07 | 1.11 | 1.23 | 0.822 | 0.54 | 0.509 | 0.574 | 0.519 | 0.588 | 0.694 | 0.786 | 0.802 | 0.756 | 0.633
9 | LXF-289 | 0.846 | 0.812 | 0.909 | 0.709 | 0.123 | 1.07 | 1.21 | 1.44 | 1.05 | 0.95 | 0.235 | 0.171 | 0.175 | 0.151 | 0.152 | 0.911 | 0.978 | 1.09 | 0.894 | 0.895
10 | NCI-H1792 | 0.289 | 0.303 | 0.254 | 0.177 | 0.302 | 0.385 | 0.394 | 0.252 | 0.53 | 0.152 | – | – | – | – | – | – | – | – | – | –
11 | LU99A | 0.358 | 0.286 | 0.287 | 0.223 | 0.161 | 0.249 | 0.264 | 0.235 | 0.234 | 0.245 | 0.261 | 0.282 | 0.29 | 0.262 | 0.273 | 0.835 | 0.858 | 0.814 | 0.55 | 0.428
12 | A549 | 0.674 | 0.525 | 0.831 | 0.173 | 0.158 | 0.417 | 0.276 | 0.37 | 0.194 | 0.0705 | – | – | – | – | – | 1.13 | 1.19 | 1.2 | 0.757 | 0.0545
13 | NCI-H1648 | – | – | – | – | – | 1.04 | 1.07 | 0.751 | 0.889 | 0.0854 | 0.532 | 0.484 | 0.394 | 0.498 | 0.44 | – | – | – | – | –
14 | SW 900 | – | – | – | – | – | 0.858 | 0.889 | 0.914 | 0.827 | 0.418 | 0.502 | 0.595 | 0.606 | 0.409 | 0.293 | 0.813 | 0.76 | 0.927 | 0.854 | 0.204
15 | NCI-H1563 | 0.68 | 0.723 | 0.533 | 0.54 | 0.528 | – | – | – | – | – | – | – | – | – | – | 0.895 | 0.879 | 0.984 | 0.845 | 0.798
16 | NCI-H2342 | – | – | – | – | – | 0.413 | 0.423 | 0.423 | 0.453 | 0.328 | 0.492 | 0.502 | 0.544 | 0.554 | 0.43 | 1.16 | 1 | 1 | 1.09 | 0.793
17 | NCI-H1623 | – | – | – | – | – | – | – | – | – | – | 0.404 | 0.719 | 0.473 | 0.394 | 0.324 | 0.929 | 1.03 | 0.887 | 0.823 | 0.62
18 | NCI-H1299 | 0.951 | 0.727 | 0.789 | 0.37 | 0.152 | 1.02 | 0.993 | 1.07 | 0.986 | 0.478 | – | – | – | – | – | 1.14 | 1.13 | 1.14 | 1.09 | 0.584
19 | Calu-6 | 1.09 | 0.727 | 0.186 | 0.113 | 0.155 | 0.56 | – | 0.422 | 0.193 | 0.192 | – | – | – | – | – | 0.981 | 0.887 | 0.854 | 0.39 | 0.125
